{"source": "patent USRE47193E1", "about": "“Selectively substituted quinoline compounds” (EISAI R&D MANAGEMENT CO., LTD., priority 2013, dated 2019)", "biological_target": "T1, Human TLR7 (Homo sapiens, UniProt Q9NYK1)", "T1 construct": "stably and individually express human TLR4, TLR7 or TLR9 full-length ORF cDNAs; host or cells: HEK-293 (ATCC) with ELAM-1 NF-kappaB luciferase reporter", "T1 sequence (Q9NYK1 27-1049)": "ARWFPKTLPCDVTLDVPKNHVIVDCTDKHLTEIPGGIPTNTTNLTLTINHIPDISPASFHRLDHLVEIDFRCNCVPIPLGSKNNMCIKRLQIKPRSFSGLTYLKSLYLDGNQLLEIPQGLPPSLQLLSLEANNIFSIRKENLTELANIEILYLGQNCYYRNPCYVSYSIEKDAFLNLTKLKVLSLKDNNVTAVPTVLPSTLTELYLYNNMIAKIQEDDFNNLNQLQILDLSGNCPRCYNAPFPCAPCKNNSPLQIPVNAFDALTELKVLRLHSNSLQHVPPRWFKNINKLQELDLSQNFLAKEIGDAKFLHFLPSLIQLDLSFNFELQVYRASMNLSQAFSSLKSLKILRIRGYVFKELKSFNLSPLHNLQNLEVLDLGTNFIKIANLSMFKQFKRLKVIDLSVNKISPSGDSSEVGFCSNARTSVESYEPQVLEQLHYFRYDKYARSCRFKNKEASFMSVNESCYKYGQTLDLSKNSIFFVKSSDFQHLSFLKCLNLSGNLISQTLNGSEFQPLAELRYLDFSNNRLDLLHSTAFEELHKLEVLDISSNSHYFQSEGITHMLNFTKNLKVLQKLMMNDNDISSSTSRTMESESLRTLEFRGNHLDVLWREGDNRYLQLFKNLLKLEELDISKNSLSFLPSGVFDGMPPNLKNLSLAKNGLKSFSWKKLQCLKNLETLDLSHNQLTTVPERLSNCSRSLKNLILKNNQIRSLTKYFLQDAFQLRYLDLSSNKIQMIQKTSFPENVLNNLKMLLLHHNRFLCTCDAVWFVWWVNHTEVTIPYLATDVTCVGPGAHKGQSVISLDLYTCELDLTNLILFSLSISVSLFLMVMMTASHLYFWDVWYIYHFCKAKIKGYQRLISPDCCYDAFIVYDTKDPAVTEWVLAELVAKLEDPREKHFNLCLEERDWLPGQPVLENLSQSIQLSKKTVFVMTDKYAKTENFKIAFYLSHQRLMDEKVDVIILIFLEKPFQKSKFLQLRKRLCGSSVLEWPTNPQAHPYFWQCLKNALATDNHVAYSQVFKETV", "assay": "HEK-293 human TLR7 NF-kappaB luciferase reporter assay (CL097)", "format": "cell-based", "description": "Effects on mouse TLR7 were also compared. Cells were stimulated overnight with TLR7/8 agonist CL097 at pre-determined ED70-80: 3 ug/ml for HEK-hTLR7, 1.5 ug/ml for HEK-mTLR7 and 12 ug/ml for HEK-hTLR8, before reading luminescence intensity. Three tests were performed and IC50 value was determined using Graphpad Prism 6 nonlinear regression curve fit.\nHEK-293 cells (ATCC) were engineered to stably express a NF-kappaB transcription factor inducible E-selectin (ELAM-1) luciferase reporter derived from the plasmid pGL3 (Promega) containing base pairs −2241 bp to −254 bp from the promoter of the human E-selectin gene (Accession No. NM_000450). These cells were then subsequently engineered to stably and individually express human TLR4, TLR7 or TLR9 full-length ORF cDNAs. Human TLR4 cDNA (Accession No. NM_138554) was cloned into pcDNA 3.0 expression vector (Invitrogen). TLR4 transfected cells were also engineered to express human MD-2 co-receptor [MD-2 cDNA (Accession No. NM_015364) was cloned into the pEF-BOS vector] and were supplemented with 10 nM soluble CD14 (R&D Systems) in the media to optimize LPS responsiveness. Human TLR9 cDNA (Accession No. NM_017442) was cloned into the pBluescript II KS vector (Agilent). Human TLR7 cDNA (Accession No. NM_016562) was obtained from OriGene. HEK-293 cells stably expressing human TLR8 (Accession No. NM_138636) or mouse TLR7 (Accession No. NM_133211) were purchased from InvivoGen and were then stably transfected with pNiFty2(NF-kappaB)-luciferase reporter plasmid (InvivoGen). Each cell type was plated in Dulbecco's modified Eagle's medium (DMEM) containing 10% fetal bovine serum (FBS) at a density of 2.22×10^5 cells/ml into a 384-well plate and incubated for 2 days at 37° C., 5% CO2. Varying concentrations of antagonist compounds were then added. Cells were then incubated for another 30 minutes before adding the appropriate TLR agonist as follows (final concentrations indicated): lipopolysaccharide (LPS; Sigma) at 10 ng/ml for TLR4, CL097 (InvivoGen) at 3 ug/ml for human TLR7 and TLR8 and mouse TLR7, and CvG-2006-2A [sequence: […] (SEQ ID NO: 1) with phosphorothioate backbone, synthesized by Sigma-Aldrich] at 0.6 uM for TLR9.", "note": "Several values for one entry are separate records, joined by “and”; a condition that tells them apart may be missing. Identical values can stand only once. Like-named read-outs stand apart in the source and are kept apart here."}
{"smiles": "C[C@@H]1CN(c2ccc(C#N)c3ncccc23)C[C@H](C(=O)N[C@H]2CNC[C@H]2F)O1.Cl", "note": "[ER-899742, (2R,6R)-4-(8-cyanoquinolin-5-yl)-N-[(3S,4R)-4-fluoropyrrolidin-3-yl]-6-methylmorpholine-2-carboxamide hydrochloride]", "values": [{"measurement": "IC50", "setting": "IC50, HEK-293, ligand CL097, analyte NFkB-luciferase (Table 1)", "result": 0.006, "unit": "µM"}, {"measurement": "IC50", "setting": "IC50, HEK-hTLR7, CL097 3 ug/ml, individual tests 1-3", "result": "0.023 µM and 0.026 µM"}, {"measurement": "IC50", "setting": "IC50 average, HEK-hTLR7, CL097 3 ug/ml, average of three tests", "result": 0.024, "unit": "µM"}]}
{"smiles": "CCN(CCO)CCCC(C)Nc1ccnc2cc(Cl)ccc12", "note": "(centres unmarked) [HCQ, hydroxychloroquine, reference compound]", "values": [{"measurement": "IC50", "setting": "HEK-hTLR7, CL097 3 ug/ml, average of three tests, read-out: IC50 average", "result": 9.1, "unit": "µM"}, {"measurement": "IC50", "setting": "HEK-hTLR7, CL097 3 ug/ml, individual tests 1-3, read-out: IC50", "result": "6.8 µM and 14.5 µM and 5.95 µM"}]}
